Test results as given in patent US20250186458A1, “METHODS FOR THE TREATMENT OF MILD COGNITIVE IMPAIRMENT” (BIOVIE INC., priority 2022, published 2025).

Columns and labels:
[1] = test system: subjects with dementia; test: Trial in subjects with dementia (CDR 1-2, MMSE 14-24), Aptus positive and negative; type: in vivo, human
Text: In a trial, the relationship between Clinical Dementia Rating Scale (CDR) and Mini Mental State Exam (MMSE) scores with measures of obesity, including Body Mass Index (BMI), Waist Circumference (WC), and waist-to-hip ratio (W/H) was explored with administration of 17α-ethynylandrost-5-ene-3β,7β,17β-triol. The trial sought to explore the anti-inflammatory and insulin sensitizing activity of 17α-ethynylandrost-5-ene-3β,7β,17β-triol in subjects with dementia, using inclusion criteria of the CDR levels 1-2 and the MMSE scores of 14-24 for inclusion criteria.
In this trial, the correlation between CDR (1-2) and MMSE (14-24) scores and the presence or absence of amyloid by the Aptus test, and also the presence of absence of metabolic inflammation using markers of obesity and metabolic inflammation was explored.
With Aptus data available for 96 subjects that met the criteria for CDR and MMSE, only 35 subjects (36%) met the Aptus criteria. When measures of obesity were examined, BMI was available for 149 subjects. Due to the age-related decrease in muscle mass, only 60 (40%) of the subjects met the CDC criteria (male BMI >40, Female BMI >35) for obesity. These restrictions would severely limit enrollment. […]

[2] = test system: patients with degenerative dementia; test: Exit interviews with patients who completed NE3107-TRP-001; type: in vivo, human
Protocol: The exit interviews were conducted in the US with 11 adult patients/study partners who completed the Phase 2 trial of NE3107. Participants (patients and study partners) completed one 60-minute semi-structured interview via remote videoconference to facilitate face-to-face communication.
Each interview was divided into four parts: 1) elicitation of experience with degenerative dementia, 2) changes due to treatment with NE3107 and meaningfulness of those changes, 3) experience with NE3107 during the trial, and, if applicable, 4) study partner perceptions of the patient's changes during the trial and their trial experience.
Interviews took place via videoconference with a trained and experienced interviewers using a semi-structured interview guide. Participants were required to confirm that they signed the ICF for the exit interview, and provide permission to record the interview. The interviews lasted approximately 60 minutes. Open-ended questions were used to characterize the participant's experience with degenerative dementia. Three overarching topics were covered: 1) degenerative dementia signs and symptoms prior to the trial, 2) changes experienced during the trial, and 3) experience with the trial medication (NE3107). Interviewers noted spontaneously reported changes experienced during the trial and followed up with probes (as needed) to elicit the full range of changes experienced.
If both the patient and study partner participated, the patient was interviewed first with the study partner present. Following the patient interview, the study partner was interviewed without the patient present. Interviewers were instructed to direct the questions towards the patient and to remind the study partner that they would have an opportunity to add information or different perspectives at the end.
The coding and analysis of the interview transcripts followed principles in line with qualitative thematic (content) analysis (Braun et al. 2019), with additional features drawn from grounded theory (Bryant and Charmaz 2007; Strauss and Corbin 1998). This approach conforms to best practices in the field (Patrick et al. 2011). A saturation table was developed during the coding process and updated after each interview to ensure that the interviews provided sufficient quality and quantity of data to support the study goals. The focus of saturation was changes due to treatment.
During the interviews, patients were asked open-ended questions about any changes they experienced as a result of being treated with NE3107. Patients reported 14 unique change-related concepts related that were categorized as follows: cognitive (2 concepts), psychological (4 concepts), behavioral (2 concepts), physical (5 concepts), and no change (1 concept) (Table 3).

For C#C[C@]1(O)CC[C@H]2[C@@H]3[C@@H](O)C=C4C[C@@H](O)CC[C@]4(C)[C@H]3CC[C@@]21C [17α-ethynylandrost-5-ene-3β,7β,17β-triol, 17-ethynyl-10R, 13S-dimethyl 2,3,4,7, 8R, 9S, 10, 11, 12, 13, 14S, 15, 16, 17-hexadecahydro-1H-cyclopenta[a]phenanthrene-3R, 7R, 17S-triol], the cognition [1] was “improvements in cognition independent of amyloid beta positivity”, the “average number of positive changes per patient who improved” value ([2]; SD=1.86, range 1-7) was 4.7 and the “Change due to treatment reported by patients: No Change” value ([2]; exit interviews, N = 11) was 2 n. The “patients who experienced no change” value ([2]; exit interviews, N = 11, figure in brackets after the count) was 15.4, the “Change due to treatment reported by patients: No Change” value ([2]; exit interviews, N = 11, listed as NE3107) was “two” and the “Cognitive Change from Interview (Memory or Clarity)” value (from here on “Cognitive Change from Interview”) ([2]; subject N-02-22) was “Improvement”. For the same compound, the “Cognitive Change from Interview” value ([2]; subject N-03-22) was “Improvement”, the “Cognitive Change from Interview” value ([2]; subject N-07-22) was “Improvement” and the “Cognitive Change from Interview” value ([2]; subject N-10-22) was “No Change”. The “Cognitive Change from Interview” value ([2]; subject N-14-22) was “No Change”, the “Cognitive Change from Interview” value ([2]; subject N-16-22) was “Improvement” and the “Cognitive Change from Interview” value ([2]; subject N-17-22) was “Improvement”. For the same compound, the “Cognitive Change from Interview” value ([2]; subject N-18-22) was “Improvement”, the “Cognitive Change from Interview” value ([2]; subject N-20-22) was “Improvement” and the “Cognitive Change from Interview” value ([2]; subject N-22-22) was “Improvement”. The “Cognitive Change from Interview” value ([2]; subject N-23-22) was “Improvement”.
